Read-outs that look alike come from different tables or passages of the source.
How the values were obtained:
[1] = Pharmacokinetic experiment, free drug levels in mouse; assay type: in vivo
Method: In vitro plasma and brain protein binding values were generated via the Rapid Equilibrium Dialysis method. The compound of interest was incubated in K2EDTA mouse plasma and rat brain homogenate (homogenized 1:7 (w:v) in 1xPBS) purchased from BioIVT, opposite a buffered compartment of 100mM Potassium phosphate/150mM Sodium chloride, pH 7.4, at 1uM for 4hr and 6hr respectively. […] Free fractions (fu) were then calculated by comparing peak-area ratios of matrix and buffered compartments.
In vivo pharmacokinetic studies were conducted in accordance with Biogen IACUC guidelines in 20-25g C57BL/6 mice purchased from Charles River Labs. A total of 9 mice, split into 3 groups (A,B,C), were dosed subcutaneously at 30mg/kg (3mg/mL; 10mL/kg) in a vehicle of 20% Captisol. […] Mouse brains were harvested for total drug concentration measurement, placed into MP Biomedicals Lysing Matrix D tubes, and stored at -80°C, along with plasma samples to await quantitative analysis.
Total drug concentration in plasma and brain tissue was measured via well-established bioanalytical extraction (protein precipitation) and detection methods (LC-MS/MS). […] Reconstituted extracts were then analyzed via LC-MS/MS (AB Sciex 5500) utilizing a binary HPLC setup (Shimadzu LC-20ADvp) and reverse-phase chromatography gradient (ACE 3 C18-AR). […]

[2] = target: T1, MLK2 (Mus musculus, UniProt Q66L42); test: Ex vivo KiNativ ATP/ADP probe competition in mouse cortical brain lysates; assay type: binding; details: DLKSINILILEAIENHNLADTVLK; Lys2; ATP probe
T1 construct: from tissue; host or cells: mouse cortical brain lysate

[3] = target: T2, PITSLRE (Mus musculus, UniProt P24788); test: as above; assay type: binding; details: DLKTSNLLLSHAGILK; Lys2; ATP probe
T2 construct: from tissue; host or cells: mouse cortical brain lysate
T2 sequence (P24788 1-784): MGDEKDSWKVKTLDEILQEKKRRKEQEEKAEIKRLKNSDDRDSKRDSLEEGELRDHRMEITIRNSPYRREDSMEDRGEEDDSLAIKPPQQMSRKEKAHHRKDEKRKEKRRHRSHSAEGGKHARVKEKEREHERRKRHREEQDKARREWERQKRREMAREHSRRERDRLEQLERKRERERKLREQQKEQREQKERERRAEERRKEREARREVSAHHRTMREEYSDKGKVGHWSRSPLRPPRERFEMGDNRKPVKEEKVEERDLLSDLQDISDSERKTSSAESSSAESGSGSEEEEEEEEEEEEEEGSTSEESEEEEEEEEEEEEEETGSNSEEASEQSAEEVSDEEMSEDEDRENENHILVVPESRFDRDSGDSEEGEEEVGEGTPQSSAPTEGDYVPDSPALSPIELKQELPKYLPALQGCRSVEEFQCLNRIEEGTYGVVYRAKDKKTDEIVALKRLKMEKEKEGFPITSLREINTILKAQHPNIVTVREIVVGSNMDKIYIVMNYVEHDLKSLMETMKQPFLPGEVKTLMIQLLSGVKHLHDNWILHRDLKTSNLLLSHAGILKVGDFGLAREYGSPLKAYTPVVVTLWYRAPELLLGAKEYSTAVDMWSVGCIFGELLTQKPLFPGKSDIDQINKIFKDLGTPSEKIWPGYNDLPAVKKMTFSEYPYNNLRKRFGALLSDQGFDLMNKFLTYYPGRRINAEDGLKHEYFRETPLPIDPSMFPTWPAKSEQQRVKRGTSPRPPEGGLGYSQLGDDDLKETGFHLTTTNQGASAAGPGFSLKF

[4] = target: T3, CaMK1a (Mus musculus, UniProt Q91YS8); test: as above; assay type: binding
T3 construct: from tissue; host or cells: mouse cortical brain lysate

[5] = target: T4, MAP4K5 (Mus musculus, UniProt Q8BPM2); test: as above; assay type: binding; details: NVHTGELAAVKIIK, Lys1
T4 construct: from tissue; host or cells: mouse cortical brain lysate

[6] = Free drug in the brain after hypothermia experiment; assay type: in vivo; details: C57Bl/6, mouse, intraperitoneal, one hour after dosing
Method: Following hypothermia induction, 200–300 μL of blood was collected via cardiac punch and transferred to K2EDTA-treated BD Microtainers (Becton Dickinson and Co., Franklin Lakes, NJ). Mice were sacrificed via decapitation and brains were quickly removed and bisected sagitally. The right cortices, were isolated, placed into 2 mL microtubes along with a single 5 mm stainless steel bead and the left cortices were placed into 2 mL Lysing Matrix A tubes (MP Biomedicals, Santa Ana, CA). Both tubes were immediately snap frozen in liquid nitrogen. The whole blood-containing microtainers were centrifuged (2000 x g, 5 minutes) and plasma was transferred to 96-well plates for pharmacokinetic determination. […] The protein content of each sample was quantified using a Direct Detect Infrared Spectrometer (EMD Millipore Corp., Burlington, MA).
In vitro plasma and brain protein binding values were generated via the Rapid Equilibrium Dialysis method. […] At the conclusion of incubation, samples were taken from both matrix and buffered compartments, matrix-matched using blank buffer and matrix, extracted with acetonitrile, diluted with water, and analyzed utilizing an Agilent RapidFire 365 high-throughput LC coupled with MS/MS detection via an AB Sciex 5500. Free fractions (fu) were then calculated by comparing peak-area ratios of matrix and buffered compartments. […]

T3 sequence (Q91YS8 whole entry): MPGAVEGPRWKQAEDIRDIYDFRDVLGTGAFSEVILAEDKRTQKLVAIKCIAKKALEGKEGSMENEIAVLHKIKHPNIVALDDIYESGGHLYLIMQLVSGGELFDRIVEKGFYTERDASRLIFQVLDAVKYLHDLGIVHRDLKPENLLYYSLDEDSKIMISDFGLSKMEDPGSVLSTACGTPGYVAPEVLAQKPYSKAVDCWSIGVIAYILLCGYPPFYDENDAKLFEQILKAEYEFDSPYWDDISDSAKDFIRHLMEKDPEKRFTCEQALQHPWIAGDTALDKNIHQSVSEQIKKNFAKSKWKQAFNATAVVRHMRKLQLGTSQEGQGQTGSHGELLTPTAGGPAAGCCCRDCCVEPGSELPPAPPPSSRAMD
T4 sequence (Q8BPM2 whole entry): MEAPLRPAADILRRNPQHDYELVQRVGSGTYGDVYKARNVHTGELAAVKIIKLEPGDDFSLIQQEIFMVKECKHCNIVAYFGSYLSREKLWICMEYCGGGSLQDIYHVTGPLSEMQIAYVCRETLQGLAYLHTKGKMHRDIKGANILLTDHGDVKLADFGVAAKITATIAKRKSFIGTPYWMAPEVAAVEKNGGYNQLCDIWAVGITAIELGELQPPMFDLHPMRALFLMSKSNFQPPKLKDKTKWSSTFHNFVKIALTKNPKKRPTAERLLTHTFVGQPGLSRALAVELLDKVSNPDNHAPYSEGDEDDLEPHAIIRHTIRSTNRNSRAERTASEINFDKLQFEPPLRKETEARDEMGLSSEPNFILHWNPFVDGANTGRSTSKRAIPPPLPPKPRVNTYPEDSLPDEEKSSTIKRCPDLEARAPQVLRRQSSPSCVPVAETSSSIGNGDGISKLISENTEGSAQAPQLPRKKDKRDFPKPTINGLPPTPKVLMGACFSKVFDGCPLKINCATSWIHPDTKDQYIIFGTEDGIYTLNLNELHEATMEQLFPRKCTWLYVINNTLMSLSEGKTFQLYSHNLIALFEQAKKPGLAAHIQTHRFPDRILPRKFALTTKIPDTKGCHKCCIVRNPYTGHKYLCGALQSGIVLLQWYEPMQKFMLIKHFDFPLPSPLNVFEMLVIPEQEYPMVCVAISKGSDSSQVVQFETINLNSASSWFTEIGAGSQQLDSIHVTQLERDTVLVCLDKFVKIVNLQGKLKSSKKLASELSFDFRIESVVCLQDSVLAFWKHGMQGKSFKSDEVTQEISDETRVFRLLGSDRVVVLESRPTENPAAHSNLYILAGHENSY
T1 sequence (Q66L42 whole entry): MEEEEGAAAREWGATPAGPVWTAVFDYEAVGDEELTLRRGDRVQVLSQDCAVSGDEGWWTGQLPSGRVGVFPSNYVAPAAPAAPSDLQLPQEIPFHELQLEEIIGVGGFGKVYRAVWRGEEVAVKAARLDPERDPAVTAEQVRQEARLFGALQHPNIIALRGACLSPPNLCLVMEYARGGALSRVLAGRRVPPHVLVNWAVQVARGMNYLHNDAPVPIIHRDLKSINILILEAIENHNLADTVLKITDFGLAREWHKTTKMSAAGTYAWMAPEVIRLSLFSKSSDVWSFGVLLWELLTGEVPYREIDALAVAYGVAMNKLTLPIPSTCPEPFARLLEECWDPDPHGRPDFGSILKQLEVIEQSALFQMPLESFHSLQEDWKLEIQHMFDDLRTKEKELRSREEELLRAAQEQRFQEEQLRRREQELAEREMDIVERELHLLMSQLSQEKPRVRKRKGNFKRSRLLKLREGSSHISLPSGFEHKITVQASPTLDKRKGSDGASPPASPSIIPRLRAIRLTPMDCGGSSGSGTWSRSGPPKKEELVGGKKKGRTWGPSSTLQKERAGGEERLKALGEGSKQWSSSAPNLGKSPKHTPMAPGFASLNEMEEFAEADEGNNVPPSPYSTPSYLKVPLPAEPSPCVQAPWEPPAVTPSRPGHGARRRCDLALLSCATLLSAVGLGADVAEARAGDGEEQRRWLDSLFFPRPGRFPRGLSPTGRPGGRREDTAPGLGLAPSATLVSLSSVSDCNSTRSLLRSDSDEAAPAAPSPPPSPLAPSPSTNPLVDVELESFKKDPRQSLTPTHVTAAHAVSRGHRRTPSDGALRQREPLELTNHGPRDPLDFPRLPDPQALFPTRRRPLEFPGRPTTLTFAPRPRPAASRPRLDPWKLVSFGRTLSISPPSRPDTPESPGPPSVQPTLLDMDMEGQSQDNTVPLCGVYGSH

CCC(C)(O)C#Cc1cc2c(ccn2-c2ccnc(N)n2)cn1 (centres unmarked) [BIIB-TTBK1i]
clearance rate [1]: rapid
Percent Inhibition at 1μM [2]: 60.1%
Percent Inhibition at 1μM [3]: 63.3%
Percent Inhibition at 1μM ([4]; DLKPENLLYYSLDEDSK, Lys2, ADP probe): 64.7%
Percent Inhibition at 1μM ([4]; DLKPENLLYYSLDEDSK, Lys2, ATP probe): 63.8%
Percent Inhibition at 1μM ([4]; LVAIKCIAK, Lys1, ADP probe): 69.3%
Percent Inhibition at 1μM ([4]; LVAIKCIAK, Lys1, ATP probe): 69.2%
Percent Inhibition at 1μM ([5]; ADP probe): 69.7%
Percent Inhibition at 1μM ([5]; ATP probe): 58.7%
concentration at 1 h ([6]; 25mg/kg I.P., read-out: concentration of free drug in the brain): 207 nM
concentration at 1 h ([6]; 50mg/kg I.P., read-out: average free drug in the brain): 602 nM

Source: paper PMC7138307 (PLoS ONE, 2020)
